pIC50: −log10 of the molar value.
What follows are molecules tested against MAPK14 (human) (UniProt Q16539) (assay: Inhibition of MAPK14 Kinase Activity).
Sequence of MAPK14 (human) (Q16539 whole entry, looked up): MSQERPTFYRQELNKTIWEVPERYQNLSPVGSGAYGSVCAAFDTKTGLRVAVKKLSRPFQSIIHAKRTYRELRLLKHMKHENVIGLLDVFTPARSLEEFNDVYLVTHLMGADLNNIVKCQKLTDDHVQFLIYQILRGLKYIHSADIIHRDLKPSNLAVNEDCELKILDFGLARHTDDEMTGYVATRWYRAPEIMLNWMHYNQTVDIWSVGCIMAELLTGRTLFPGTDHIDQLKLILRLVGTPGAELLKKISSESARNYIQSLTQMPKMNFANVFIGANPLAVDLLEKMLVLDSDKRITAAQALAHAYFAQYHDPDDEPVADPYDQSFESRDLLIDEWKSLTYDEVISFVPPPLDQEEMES

Row | pIC50 | Compound
1 | > 5.00 | CC(=O)CC(C)(C)NC(=O)c1ccc(-c2cc(C(=O)NC3CC3)cc(F)c2C)cc1
2 | > 5.00 | Cc1c(F)cc(C(=O)NC2CC2)cc1-c1ccc(C(=O)NCC2(O)CCCCC2)cc1
3 | > 5.00 | Cc1c(F)cc(C(=O)NC2CC2)cc1-c1ccc(C(=O)NC(C)(C)C(=O)C(C)C)cc1
4 | > 5.00 | CCC(C)(C#N)NC(=O)c1ccc(-c2cc(C(=O)NC3CC3)cc(F)c2C)cc1 (stereo unspecified)
5 | > 5.00 | Cc1c(F)cc(C(=O)NC2CC2)cc1-c1ccc(C(=O)N2CCC2)cc1
6 | > 5.00 | Cc1c(F)cc(C(=O)NC2CC2)cc1-c1ccc(C(=O)N2CCCC2)cc1
7 | > 5.00 | Cc1c(F)cc(C(=O)NC2CC2)cc1-c1ccc(C(=O)NC2(C#N)CCCCC2)cc1
8 | > 5.00 | Cc1c(F)cc(C(=O)NC2CC2)cc1-c1ccc(C(=O)NCCC#N)cc1
9 | > 5.00 | CSCCNC(=O)c1ccc(-c2cc(C(=O)NC3CC3)cc(F)c2C)cc1
10 | > 5.00 | Cc1c(F)cc(C(=O)NC2CC2)cc1-c1ccc(C(=O)NCCS(C)(=O)=O)cc1
11 | > 5.00 | Cc1c(F)cc(C(=O)NC2CC2)cc1-c1ccc(C(=O)NC(CO)C2CC2)cc1 (stereo unspecified)

From the Kinase Knowledgebase extract (Sharma et al. 2016)
